# Biological target: Factor XIa (Homo sapiens, UniProt P03951)
# Assay: Factor XIa inhibition assay utilizing a fluorophore-quencher pair peptide substrate (FLINT)
# Type: biochemical
# Settings: end point read at 30 min; 30 min preincubation; 5Fam-KLTRAETV-K5Tamra substrate; read-out: FXIa (EP) IC50
# Text: Biological Example 1: Factor XIa Inhibition Assay Utilizing a Fluorophore-Quencher Pair Peptide Substrate
# A fluorescence intensity (FLINT) based assay was used to monitor inhibition of Factor XIa. The peptide substrate, 5Fam-KLTRAETV-K5Tamra (purchased from New England Peptide) was chosen based on the […]. Conversion of zymogen […]. The custom peptide used in this assay was based on the Arg146 cleavage site of FXI. The peptide substrate was designed with a fluorophore-quencher pair, where the fluorescence is quenched until FXIa cleaves the 8-mer peptide after the Arg residue. The substrate KM was fit to a substrate inhibition model whereby kcat=0.86 s^−1, KM=12.4 μM, Ki=61.6 μM with an enzymatic efficiency, and kcat/KM=69523 M^−1s^−1.
# The Factor XIa FLINT assay was used with the following 5Fam-KLTRAETV-K5Tamra assay buffer: 50 mM Tris, pH 7.5, 100 mM NaCl, 5 mM CaCl2, 0.1 mg/mL BSA, 0.03% CHAPS. Assay buffer was prepared by mixing all ingredients fresh. 5Fam-KLTRAETV-K5Tamra peptide substrate was first prepared at 10 mM in 100% DMSO, then diluted to 3 mM in 100% DMSO. Assay buffer was then added directly to the 3 mM stock of substrate to prepare the 30 μM 2× working concentration (15 μM final concentration). The 2× Factor XIa stock solution was prepared by diluting 6.562 μM stock in 1× assay buffer for a 200 pM working stock solution (100 pM final concentration).
# Test compound(s) were run in an 11-point, 3-fold serial dilution with a final top compound concentration of 100 nM. Final DMSO in assay was 2%. FXIa was preincubated with compound for 30-minutes and then substrate was added to initiate the reaction. The assay was run with either end point (EP) reads at 30 min or kinetic (KIN) reads at 5 min intervals over 30 minutes. The time course was linear using 100 μM FXIa greater than 30 minutes. More specifically, the assay was run as follows: • 100 nL of 0.01 mM test compound was dispensed into black 384-well non-binding Greiner BioOne 784900 plate for 0.1 μM final concentration; • 5 μL of 1× assay buffer was dispensed to column 24 (low control) and 5 μL 2× Factor XIa solution was dispensed to columns 1-23 (column 23 high control); • the plate was centrifuged with a “cover” plate at 500 rpm for 1 min the plate was pre-incubated for 30 minutes at room temperature with plate covered; • 5 μL of 2× 5Fam-KLTRAETV-K5Tamra peptide substrate was dispensed into the entire plate, columns 1-24; • the plate was centrifuged with a “cover” plate at 500 rpm for 1 min; • the plate was read monitoring fluorescence intensity on the BMG PHERAStar at room temperature, using fluorescence module 485 nm/520 nm.
# Percent inhibition (IC50) curves were generated per compound tested, and data was analyzed using a 4-parameter logistic fit using GeneData Screener. The relative fluorescence unit (RFU) values were normalized to percent inhibition using the following equation: % inhibition=((HC−LC)−(compound−LC)/(HC−LC))*100 where LC—low control=mean signal of no Factor XIa or 100% inhibition of Factor XIa; HC—high control=mean signal of Factor XIa+5Fam-KLTRAETV-K5Tamra peptide substrate with DMSO only.
# An 11-point dose response curve for the test compound(s) was generated using GENDATA to determine IC50 value based on the following equation: Y=Bottom+(Top−Bottom)/(1+10^((log IC50−X)*HillSlope))
# where Y is the % inhibition in the presence of X inhibitor concentration, Top=high control=mean signal of Factor XIa+5Fam-KLTRAETV-K5Tamra peptide substrate with DMSO only; Bottom=low control−mean signal of no Factor XIa or 100% inhibition of Factor XIa; HillSlope—Hill coefficient; and IC50=concentration of compound with 50% inhibition in relation to top/high control. […]
# Chain of Factor XIa (P03951 388-625 limits assumed): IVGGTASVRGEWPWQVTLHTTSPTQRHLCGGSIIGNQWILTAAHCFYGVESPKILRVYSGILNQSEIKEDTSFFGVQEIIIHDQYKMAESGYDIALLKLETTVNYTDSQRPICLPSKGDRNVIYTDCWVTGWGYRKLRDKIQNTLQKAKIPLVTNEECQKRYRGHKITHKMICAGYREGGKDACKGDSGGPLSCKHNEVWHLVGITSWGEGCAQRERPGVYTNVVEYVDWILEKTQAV
# Chain of Factor XIa (P03951 19-387 partner limits assumed): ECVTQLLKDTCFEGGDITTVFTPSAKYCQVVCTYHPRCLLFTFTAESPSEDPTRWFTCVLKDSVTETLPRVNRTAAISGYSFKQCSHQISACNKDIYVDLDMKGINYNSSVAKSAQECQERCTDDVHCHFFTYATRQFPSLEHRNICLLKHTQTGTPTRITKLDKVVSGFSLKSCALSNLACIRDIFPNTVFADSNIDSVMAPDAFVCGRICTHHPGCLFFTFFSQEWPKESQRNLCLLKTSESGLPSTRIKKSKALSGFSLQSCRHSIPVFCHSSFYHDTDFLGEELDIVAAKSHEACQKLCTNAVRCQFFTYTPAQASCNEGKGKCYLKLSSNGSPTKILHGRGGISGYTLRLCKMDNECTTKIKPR
row,SMILES,IC50
1,"COC(=O)Nc1ccc(-c2cnn(C3CCc4cc(-c5c(-n6cnnn6)ccc(Cl)c5F)c[n+]([O-])c43)c2)cc1 (single isomer, unassigned) [ID No. 8, (R*)3-(3-Chloro-2-fluoro-6-(1H-tetrazol-1-yl)phenyl)-7-(4-(4-((methoxycarbonyl)amino)phenyl)-1H-pyrazol-1-yl)-6,7-dihydro-5H-cyclopenta[b]pyridine 1-oxide]",3260 nM
2,"O=C(O)c1ccc2nn(C3CCc4cc(-c5cc(Cl)ccc5-n5cnnn5)c[n+]([O-])c43)cc2c1 (centres unmarked) [ID No. 1, 7-(5-Carboxy-2H-indazol-2-yl)-3-(5-chloro-2-(1H-tetrazol-1-yl)phenyl)-6,7-dihydro-5H-cyclopenta[b]pyridine 1-oxide]",2850 nM
3,"O=C(O)c1cccc(-c2ccn(C3CCc4cc(-c5cc(Cl)ccc5-n5cnnn5)c[n+]([O-])c43)n2)c1 (racemic) [ID No. 4, 7-(3-(3-Carboxyphenyl)-1H-pyrazol-1-yl)-3-(5-chloro-2-(1H-tetrazol-1-yl)phenyl)-6,7-dihydro-5H-cyclopenta[b]pyridine 1-oxide]",1010 nM
4,"O=C(O)c1cccc(-c2cnn(C3CCc4cc(-c5cc(Cl)ccc5-n5cnnn5)c[n+]([O-])c43)c2)c1 (racemic) [ID No. 6, 7-(4-(3-Carboxyphenyl)-1H-pyrazol-1-yl)-3-(5-chloro-2-(1H-tetrazol-1-yl)phenyl)-6,7-dihydro-5H-cyclopenta[b]pyridine 1-oxide]",79 nM
5,"COC(=O)Nc1ccc(-c2cnn(C3CCc4cc(-c5cc(Cl)ccc5-n5cnnn5)c[n+]([O-])c43)c2)cc1 (racemic) [ID No. 7, 3-(5-Chloro-2-(1H-tetrazol-1-yl)phenyl)-7-(4-(4-((methoxycarbonyl)amino)phenyl)-1H-pyrazol-1-yl)-6,7-dihydro-5H-cyclopenta[b]pyridine 1-oxide]",9 nM
6,"COC(=O)Nc1ccc(-c2ccn(C3CCc4cc(-c5cc(Cl)ccc5-n5cnnn5)c[n+]([O-])c43)n2)cc1 (racemic) [ID No. 5, 3-(5-Chloro-2-(1H-tetrazol-1-yl)phenyl)-7-(3-(4-((methoxycarbonyl)amino)phenyl)-1H-pyrazol-1-yl)-6,7-dihydro-5H-cyclopenta[b]pyridine 1-oxide]",109 nM
7,"COC(=O)Nc1ccc(-c2cnn([C@@H]3CCc4cc(-c5c(-n6cnnn6)ccc(Cl)c5F)c[n+]([O-])c43)c2)cc1 [ID No. 9, (R)-3-(3-chloro-2-fluoro-6-(1H-tetrazol-1-yl)phenyl)-7-(4-(4-((methoxycarbonyl)amino)phenyl)-1H-pyrazol-1-yl)-6,7-dihydro-5H-cyclopenta[b]pyridine 1-oxide]",3 nM
8,"Nc1ccc(-c2cnn(C3CCc4cc(-c5cc(Cl)ccc5-n5cnnn5)c[n+]([O-])c43)c2)cc1 (racemic) [ID No. 12, 7-(4-(4-Aminophenyl)-1H-pyrazol-1-yl)-3-(5-chloro-2-(1H-tetrazol-1-yl)phenyl)-6,7-dihydro-5H-cyclopenta[b]pyridine 1-oxide]",220 nM
9,"Nc1ccc(-c2cnn(C3CCc4cc(-c5c(-n6cnnn6)ccc(Cl)c5F)c[n+]([O-])c43)c2)c(F)n1 (racemic) [ID No. 11, 7-(4-(6-Amino-2-fluoropyridin-3-yl)-1H-pyrazol-1-yl)-3-(3-chloro-2-fluoro-6-(1H-tetrazol-1-yl)phenyl)-6,7-dihydro-5H-cyclopenta[b]pyridine 1-oxide]",11 nM
10,"O=C(O)c1ccc(-c2ccn(C3CCc4cc(-c5cc(Cl)ccc5-n5cnnn5)c[n+]([O-])c43)n2)cc1 (racemic) [ID No. 3, 7-(3-(4-Carboxyphenyl)-1H-pyrazol-1-yl)-3-(5-chloro-2-(1H-tetrazol-1-yl)phenyl)-6,7-dihydro-5H-cyclopenta[b]pyridine 1-oxide]",320 nM
11,"Nc1ccc(-c2cnn(C3CCc4cc(-c5cc(Cl)ccc5-n5cnnn5)c[n+]([O-])c43)c2)c(F)n1 (racemic) [ID No. 10, 7-(4-(6-Amino-2-fluoropyridin-3-yl)-1H-pyrazol-1-yl)-3-(5-chloro-2-(1H-tetrazol-1-yl)phenyl)-6,7-dihydro-5H-cyclopenta[b]pyridine 1-oxide]",27 nM
12,"COC(=O)Nc1ccc(-c2cn(C3CCc4cc(-c5c(-n6cnnn6)ccc(Cl)c5F)c[n+]([O-])c43)nc2C)cc1 (single isomer, unassigned) [ID No. 13, (R*)3-(3-Chloro-2-fluoro-6-(1H-tetrazol-1-yl)phenyl)-7-(4-(4-((methoxycarbonyl)amino)phenyl)-3-methyl-1H-pyrazol-1-yl)-6,7-dihydro-5H-cyclopenta[b]pyridine 1-oxide]",837 nM
13,"COC(=O)Nc1ccc(-c2cn(C3CCc4cc(-c5c(-n6cnnn6)ccc(Cl)c5F)c[n+]([O-])c43)nc2C)cc1 (single isomer, unassigned) [ID No. 14, (S*)-3-(3-Chloro-2-fluoro-6-(1H-tetrazol-1-yl)phenyl)-7-(4-(4-((methoxycarbonyl)amino)phenyl)-3-methyl-1H-pyrazol-1-yl)-6,7-dihydro-5H-cyclopenta[b]pyridine 1-oxide]",16 nM
14,"COC(=O)Nc1ccc(-c2cnn(C3CCc4cc(-c5cc(Cl)ccc5OCC(F)(F)F)c[n+]([O-])c43)c2)cc1 (racemic) [ID No. 15, 3-(5-Chloro-2-(2,2,2-trifluoroethoxy)phenyl)-7-(4-(4-((methoxycarbonyl)amino)phenyl)-1H-pyrazol-1-yl)-6,7-dihydro-5H-cyclopenta[b]pyridine 1-oxide]",1690 nM

# Reference: patent US11845748B2, “Bicyclic pyridine N-oxide derivatives useful as a factor XIa inhibitors” (Janssen Pharmaceutica NV, priority 2021, dated 2023)
